Patent publication US20230135093A1, “TRIAZOLYL DERIVATIVES AS GABA A ALPHA5 PAM” (Hoffmann-La Roche Inc., priority 2020, published 2023)

Legend:
h-GABA-A α5β3γ2 [1] = biological target: T1, h-GABA-A α5β3γ2 (Homo sapiens, UniProt P18507+P31644); test: Two-electrode voltage clamp electrophysiology in Xenopus oocytes expressing GABAA receptors (modulation of GABA EC20 current); format: cell-based; details: for Efficacy (GABA) % / Fold increase h-GABA-A α5β3γ2 oocyte: Table 1; for Efficacy (GABA) %: % modulation of GABA EC20 = 100*(Fold increase-1); for Fold increase h-GABA-A α5β3γ2 oocyte: Xenopus oocytes, GABA EC20, test compound at approximatively 30 fold its Ki; for Fold increase: positive controls
T1 construct: expressed in transfected cells; host or cells: Xenopus laevis oocytes, micro-injected with subunit RNA
Procedure: Xenopus laevis oocytes at maturation stages V-VI were used for the expression of cloned mRNA encoding GABAA receptor subunits. Oocytes ready for RNA micro-injection were bought from Ecocyte, Castrop-Rauxel, Germany and stored in modified Barth's medium (composition in mM: NaCl 88, KCl 1, NaHCO3 2.4, HEPES 10, MgSO4 0.82, CaNO3 0.33, CaCl2 0.33, pH=7.5) at 20° C. until the experiment.
Oocytes were plated in 96-well plates to be used in an automated instrument (Robo-ocyte, MultiChannelSystems, Reutlingen, Germany) for microinjection and electrophysiological recordings. Approximately 50 nl of an aqueous solution containing the RNA transcripts for the subunits of the desired GABAA receptor was injected into each oocyte. RNA concentrations ranged between 0.3 and 16 ng/μl/subunit and were adjusted in pilot experiments to obtain GABA responses of a suitable size and a maximal effect of the reference modulator, Beta-CCM (3-CCM), a betacarboline negative allosteric modulator (NAM) at the GABAA receptor benzodiazepine (BZD) binding site or Midazolam, a benzodiazepine positive allosteric modulator (PAM) at the GABAA receptor benzodiazepine (BZD) binding site. The concentration of the γ2 subunit encoding RNA usually was 5- to 10-fold higher than the RNAs encoding the other subunits. Oocytes were kept in modified Barth's medium (composition in mM: NaCl 88, KCl 1, NaHCO3 4, HEPES 10, MgSO4 0.82, CaNO3 0.33, CaCl2 0.33, pH=7.5) at 20° C. until the experiment.
Electrophysiological experiments were performed on days 3 to 5 after the micro-injection of mRNA. During the experiment the oocytes were constantly superfused by a solution containing (in mM) NaCl 90, KCl 1, HEPES 5, MgCl2 1, CaCl2 1 (pH 7.4). Oocytes were impaled by two glass microelectrodes (resistance: 0.4 MQ) which were filled with a solution containing KCl 1M+K-acetate 1.5 M and voltage-clamped to −80 mV. The recordings were performed at room temperature using the Roboocyte two-electrode voltage clamp system (Multichannelsystem). After an initial equilibration period of 1.5 min GABA was added for 1.5 min at a concentration evoking approximately 20% of a maximal current response (EC20). After another rest interval of 2.5 min GABA was again added evoking a response of similar amplitude and shape. 0.5 min after the onset of this second GABA application the test compound, at a concentration corresponding to approximatively 30 fold its Ki, was added while GABA was still present. Current traces were recorded at a digitization rate of 10 Hz during and shortly before and after the GABA application.
Each compound and concentration was tested on at least 3 oocytes. Different oocytes were used for different compound concentrations. β-CCM, a negative allosteric modulator, or Midazolam, a positive allosteric modulators, were tested on a few (3-6) oocytes on each 96-well plate for a positive control at a maximally effective. β-CCM inhibited the GABA-evoked current by approximatively 50% (Fold increase 0.5), while Midazolam potentiated the GABA-induced current by approximatively 150% (Fold increase 2.5).
For the analysis, the digitized current traces of the first and second GABA response were superimposed and, if necessary, rescaled to equal maximal amplitudes. The ratio between the two responses during the time interval of test compound application was calculated point by point. The extremum of the resulting “ratio trace” was taken as the efficacy (“Fold increase”) of the compound expressed as “% modulation of GABA EC20” (100*(Fold increase-1)).

h-GABA-A α5β3γ2 [2] = biological target: T1, h-GABA-A α5β3γ2; test: [3H]flumazenil competition binding assay on membranes of HEK293 cells expressing GABAA receptors; details: Table 1; displacement of [3H]-Flumazenil (0.5 nM), HEK293 cells expressing human receptors, means of two determinations
Procedure: The affinity of compounds at GABAA receptor subtypes was measured by competition for [3H]flumazenil (85 Ci/mmol; Roche) binding to HEK293 cells expressing rat (stably transfected) or human (transiently transfected) receptors of composition α1β3γ2, α2β3γ2, α3β3γ2 and α5β3γ2.
Cell pellets were suspended in Krebs-tris buffer (4.8 mM KCl, 1.2 mM CaCl2, 1.2 mM MgCl2, 120 mM NaCl, 15 mM Tris; pH 7.5; binding assay buffer), homogenized by polytron for ca. 20 sec on ice and centrifuged for 60 min at 4° C. (50000 g; Sorvall, rotor: SM24=20000 rpm). The cell pellets were resuspended in Krebs-tris buffer and homogenized by polytron for ca. 15 sec on ice. Protein was measured (Bradford method, Bio-Rad) and aliquots of 1 mL were prepared and stored at −80° C.
Radioligand binding assays were carried out in a volume of […] (96-well plates) which contained […] of cell membranes, [^3H]-Flumazenil at a concentration of 1 nM for α1, α2, α3 subunits and 0.5 nM for α5 subunits and the test compound in the range of […]. Nonspecific binding was defined by 10^−5 M diazepam and typically represented less than 5% of the total binding. Assays were incubated to equilibrium for 1 hour at 4° C. and harvested onto GF/C uni-filters (Packard) by filtration using a Packard harvester and washing with ice-cold wash buffer (50 mM Tris; pH 7.5). After drying, filter-retained radioactivity was detected by liquid scintillation counting. Ki values were calculated using Excel-Fit (Microsoft) and are the means of two determinations.
In a preferred embodiment the compounds of the invention are binding selective for the α5 subunit relative to the α1, α2 and α3 subunit. Representative test results, obtained by the above described assay measuring binding affinity to HEK293 cells expressing human (h) receptors, are shown in the Table below.

[3] = positive control, maximally effective concentration, 3-6 oocytes per 96-well plate
[4] = maximally effective concentration

| Structure (SMILES) | Efficacy (GABA) % (h-GABA-A α5β3γ2 [1]) [%] | Fold increase h-GABA-A α5β3γ2 oocyte (h-GABA-A α5β3γ2 [1]) | Ki (h-GABA-A α5β3γ2 [2]) [nM] | potentiated the GABA-induced current (h-GABA-A α5β3γ2 [1]; [3]) [%] | Fold increase (h-GABA-A α5β3γ2 [1]; [4]) | inhibited the GABA-evoked current (h-GABA-A α5β3γ2 [1]; [3]) [%] |
| --- | --- | --- | --- | --- | --- | --- |
| Cc1ccc(-c2nnn(C)c2Cn2ncc(N3C[C@H](C)O[C@@H](C)C3)cc2=O)cn1 (racemic) [Example 12, 2-[[3-methyl-5-(6-methyl-3-pyridyl)triazol-4-yl]methyl]-5-[rac-(2S,6S)-2,6-dimethylmorpholin-4-yl]pyridazin-3-one] | 191 | 2.91 | 2.6 |  |  |  |
| Cc1nnn(-c2ccc(Cl)cc2F)c1Cn1ncc(N2C[C@H](C)O[C@@H](C)C2)cc1=O (racemic) [Example 37, 2-[[3-(4-chloro-2-fluoro-phenyl)-5-methyl-triazol-4-yl]methyl]-5-[rac-(2S,6S)-2,6-dimethylmorpholin-4-yl]pyridazin-3-one] | 135 | 2.35 | 3.6 |  |  |  |
| Cc1ccc(-n2nnc(C)c2Cn2ncc(N3C[C@@H](C)O[C@@H](C)C3)cc2=O)cn1 [Example 1, 5-(cis-2,6-dimethylmorpholin-4-yl)-2-((5-methyl-3-(6-methylpyridin-3-yl)triazol-4-yl)methyl)pyridazin-3-one] | 190 | 2.9 | 34.4 |  |  |  |
| Cc1ccc(-c2nnn(C)c2Cn2ncc(N3C[C@@H](C)O[C@@H](C)C3)cc2=O)cn1 [Example 2, 5-(cis-2,6-dimethylmorpholin-4-yl)-2-((3-methyl-5-(6-methylpyridin-3-yl)triazol-4-yl)methyl)pyridazin-3-one] | 230 |  | 4.7 |  |  |  |
| C[C@@H]1CN(c2cnn(Cc3c(-c4ccc(Cl)cc4F)nnn3C)c(=O)c2)C[C@H](C)O1 [Example 3, 2-((5-(4-chloro-2-fluoro-phenyl)-3-methyl-triazol-4-yl)methyl)-5-(cis-2,6-dimethylmorpholin-4-yl)pyridazin-3-one] | 124 | 2.24 | 1.2 |  |  |  |
| Cc1nnn(-c2ccc(Cl)cc2F)c1Cn1ncc(N2CCOCC2)cc1=O [Example 4, 2-((3-(4-chloro-2-fluoro-phenyl)-5-methyl-triazol-4-yl)methyl)-5-morpholino-pyridazin-3-one] | 97 | 1.97 | 15.6 |  |  |  |
| Cc1nnn(-c2ccc(Cl)cc2F)c1Cn1ncc(N(C)C)cc1=O [Example 5, 2-((3-(4-chloro-2-fluoro-phenyl)-5-methyl-triazol-4-yl)methyl)-5-(dimethylamino)pyridazin-3-one] | 58 | 1.58 | 18.4 |  |  |  |
| Cc1nnn(-c2ccc(Cl)cc2F)c1Cn1ncc(N2CCN(C(=O)C3CC3)CC2)cc1=O [Example 6, 2-((3-(4-chloro-2-fluoro-phenyl)-5-methyl-triazol-4-yl)methyl)-5-(4-(cyclopropane-carbonyl)piperazin-1-yl)pyridazin-3-one] | 121 | 2.21 | 71.8 |  |  |  |
| Cc1nnn(-c2ccc(Cl)cc2F)c1Cn1ncc(N2C[C@@H](C)O[C@@H](C)C2)cc1=O [Example 7, 2-((3-(4-chloro-2-fluoro-phenyl)-5-methyl-triazol-4-yl)methyl)-5-((2S,6R)-2,6-dimethylmorpholin-4-yl)pyridazin-3-one] | 164 | 2.64 | 5.8 |  |  |  |
| Cc1ccc(-c2nnn(C)c2Cn2ncc(N3CCCC3)cc2=O)cn1 [Example 8, 2-((3-methyl-5-(6-methyl-3-pyridyl)triazol-4-yl)methyl)-5-pyrrolidin-1-yl-pyridazin-3-one] | 130 | 2.3 | 20.9 |  |  |  |
| Cc1ccc(-c2nnn(C)c2Cn2ncc(N3CCOCC3)cc2=O)cn1 [Example 9, 2-[[3-methyl-5-(6-methyl-3-pyridyl)triazol-4-yl]methyl]-5-morpholino-pyridazin-3-one] | 135 | 2.35 | 16.8 |  |  |  |
| Cc1ccc(-c2nnn(C)c2Cn2ncc(N3CCC(C)(C)C3)cc2=O)cn1 [Example 10, 5-(3,3-dimethylpyrrolidin-1-yl)-2-[[3-methyl-5-(6-methyl-3-pyridyl)triazol-4-yl]methyl]pyridazin-3-one] | 201 | 3.01 | 4.4 |  |  |  |
| Cc1ccc(-c2nnn(C)c2Cn2ncc(N3CCOC(C)(C)C3)cc2=O)cn1 [Example 11, 5-(2,2-dimethylmorpholin-4-yl)-2-[[3-methyl-5-(6-methyl-3-pyridyl)triazol-4-yl]methyl]pyridazin-3-one] | 48 | 1.48 | 1.2 |  |  |  |
| Cc1nnn(-c2ccc(Cl)cc2)c1Cn1ncc(N(C)C)cc1=O [Example 13, 2-[[3-(4-chlorophenyl)-5-methyl-triazol-4-yl]methyl]-5-(dimethylamino)pyridazin-3-one] | 31 | 1.31 | 31.9 |  |  |  |
| Cc1nnn(-c2ccc(Cl)cc2)c1Cn1ncc(N2CCNCC2)cc1=O [Example 14, 2-[[3-(4-chlorophenyl)-5-methyl-triazol-4-yl]methyl]-5-piperazin-1-yl-pyridazin-3-one] | 72 | 1.72 | 39.6 |  |  |  |
| CN(C)c1cnn(Cc2c(-c3ccc(Cl)cc3F)nnn2C)c(=O)c1 [Example 15, 2-[[5-(4-chloro-2-fluoro-phenyl)-3-methyl-triazol-4-yl]methyl]-5-(dimethylamino)pyridazin-3-one] | 48 | 1.48 | 3.8 |  |  |  |
| Cn1nnc(-c2ccc(Cl)cc2F)c1Cn1ncc(N2CCOCC2)cc1=O [Example 16, 2-[[5-(4-chloro-2-fluoro-phenyl)-3-methyl-triazol-4-yl]methyl]-5-morpholino-pyridazin-3-one] | 81 | 1.81 | 2.2 |  |  |  |
| Cc1ncc2n1-c1ccc(Cl)cc1C(c1ccccc1F)=NC2 [Midazolam, reference compound] |  |  |  | ~150 | ~2.5 |  |
| COC(=O)c1cc2c(cn1)[nH]c1ccccc12 [β-CCM, reference compound] |  |  |  |  | ~0.5 | ~50 |
